Test results as given in patent US20060069132A1, “Azolecarboxamide herbicides” (priority 2004, published 2006).

Assays:
[1] = test system: barnyardgrass; test: Test B pre-/postemergence herbicide test; format: in vivo, Echinochloa crus-galli; conditions: for Plant response rating, Barnyardgrass: preemergence; for Barnyardgrass plant response rating: postemergence, visual rating, scale 0 (no effect) to 100 (complete control)
Procedure, shortened: (§1)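 Greenhouse pot assay with simultaneous preemergence (treated seed) and postemergence (2–18 cm seedlings) applications of surfactant-containing, non-phytotoxic solvent formulations. Response scored visually 13–15 days later on a 0–100 scale, 100 meaning complete control.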

[2] = test system: Surinam grass; test: Test B pre-/postemergence herbicide test; format: in vivo, Urochloa decumbens; conditions: for Plant response rating, Surinam Grass: preemergence; for Surinam Grass plant response rating: postemergence, visual rating, scale 0 (no effect) to 100 (complete control)
Procedure, shortened: as §1

[3] = test system: cocklebur; test: Test B pre-/postemergence herbicide test; format: in vivo, Xanthium strumarium; conditions: for Plant response rating, Cocklebur: preemergence; for Cocklebur plant response rating: postemergence, visual rating, scale 0 (no effect) to 100 (complete control)
Procedure, shortened: as §1

[4] = test system: large crabgrass; test: Test B pre-/postemergence herbicide test; format: in vivo, Digitaria sanguinalis; conditions: for Plant response rating, Crabgrass, Large: preemergence; for Crabgrass, Large plant response rating: postemergence, visual rating, scale 0 (no effect) to 100 (complete control)
Procedure, shortened: as §1

[5] = test system: giant foxtail; test: Test B pre-/postemergence herbicide test; format: in vivo, Setaria faberi; conditions: for Plant response rating, Foxtail, Giant: preemergence; for Foxtail, Giant plant response rating: postemergence, visual rating, scale 0 (no effect) to 100 (complete control)
Procedure, shortened: as §1

[6] = test system: lambsquarters; test: Test B pre-/postemergence herbicide test; format: in vivo, Chenopodium album; conditions: for Plant response rating, Lambsquarters: preemergence; for Lambsquarters plant response rating: postemergence, visual rating, scale 0 (no effect) to 100 (complete control)
Procedure, shortened: as §1

[7] = test system: morningglory; test: Test B pre-/postemergence herbicide test; format: in vivo, Ipomoea coccinea; conditions: for Plant response rating, Morningglory: preemergence; for Morningglory plant response rating: postemergence, visual rating, scale 0 (no effect) to 100 (complete control)
Procedure, shortened: as §1

[8] = test system: pigweed; test: Test B pre-/postemergence herbicide test; format: in vivo, Amaranthus retroflexus; conditions: for Plant response rating, Pigweed: preemergence; for Pigweed plant response rating: postemergence, visual rating, scale 0 (no effect) to 100 (complete control)
Procedure, shortened: as §1

[9] = test system: velvetleaf; test: Test B pre-/postemergence herbicide test; format: in vivo, Abutilon theophrasti; conditions: for Plant response rating, Velvetleaf: preemergence; for Velvetleaf plant response rating: postemergence, visual rating, scale 0 (no effect) to 100 (complete control)
Procedure, shortened: as §1

[10] = test system: blackgrass; test: Test B postemergence herbicide test; format: in vivo, Alopecurus myosuroides; conditions: postemergence, visual rating, scale 0 (no effect) to 100 (complete control)
Procedure, shortened: (§2)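 Greenhouse test; postemergence application to plants at 1–4 leaves (2–18 cm); paddy species at 2 leaves; evaluated visually vs controls at 13–15 days; scale 0–100 (100 = complete control).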

[11] = test system: wheat; test: Test B postemergence herbicide test; format: in vivo, Triticum aestivum; design: key to Wheat plant response rating: 0 = no effect, 100 = complete control; conditions: postemergence, 500 g ai/ha; visual rating, scale 0 (no effect) to 100 (complete control)
Procedure, shortened: (§3)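 Each value is a visual 0–100 response rating taken against controls 13 to 15 days after treatment in the greenhouse. Plants received formulated chemical postemergence at the 1- to 4-leaf stage or, in flooded paddy, at the 2-leaf stage.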

[12] = test system: wild oat; test: Test B postemergence herbicide test; format: in vivo, Avena fatua; conditions: postemergence, visual rating, scale 0 (no effect) to 100 (complete control)
Procedure, shortened: as §3

[13] = test system: rice; test: Test B flooded paddy test; format: in vivo, Oryza sativa; conditions: 1000 g ai/ha, visual rating, scale 0 to 100 (0 no effect, 100 complete control), 13 to 15 days
Procedure, shortened: as §2

[14] = test system: small flower umbrella sedge; test: Test B flooded paddy test; format: in vivo, Cyperus difformis; conditions: 1000 g ai/ha, visual rating, scale 0 to 100 (0 no effect, 100 complete control), 13 to 15 days
Procedure, shortened: as §2

[15] = test system: barnyardgrass; test: Test B flooded paddy test; format: in vivo, Echinochloa crus-galli; conditions: 1000 g ai/ha, visual rating, scale 0 to 100 (0 no effect, 100 complete control), 13 to 15 days
Procedure, shortened: as §2

[16] = 500 g ai/ha, visual rating 0-100, 0 no effect, 100 complete control
[17] = 125 g ai/ha, 0 to 100 scale, 0 is no effect, 100 is complete control

CCNC(=O)c1cccc(NC(=O)c2cc(C(C)(C)C)nn2CC)n1 [Compound 144]
Plant response rating, Barnyardgrass [1, 16]: 100
Barnyardgrass plant response rating ([1]; 125 g ai/ha): 70
Barnyardgrass plant response rating ([1]; 500 g ai/ha): 80
Plant response rating, Barnyardgrass [1, 17]: 90
Plant response rating, Surinam Grass [2, 16]: 100
Surinam Grass plant response rating ([2]; 125 g ai/ha): 60
Surinam Grass plant response rating ([2]; 500 g ai/ha): 90
Plant response rating, Surinam Grass [2, 17]: 60
Plant response rating, Cocklebur [3, 16]: 20
Cocklebur plant response rating ([3]; 125 g ai/ha): 30
Cocklebur plant response rating ([3]; 500 g ai/ha): 100
Plant response rating, Cocklebur [3, 17]: 10
Plant response rating, Crabgrass, Large [4, 16]: 100
Crabgrass, Large plant response rating ([4]; 125 g ai/ha): 30
Crabgrass, Large plant response rating ([4]; 500 g ai/ha): 100
Plant response rating, Crabgrass, Large [4, 17]: 80
Plant response rating, Foxtail, Giant [5, 16]: 100
Foxtail, Giant plant response rating ([5]; 125 g ai/ha): 40
Foxtail, Giant plant response rating ([5]; 500 g ai/ha): 90
Plant response rating, Foxtail, Giant [5, 17]: 100
Plant response rating, Lambsquarters [6, 16]: 100
Lambsquarters plant response rating ([6]; 125 g ai/ha): 90
Lambsquarters plant response rating ([6]; 500 g ai/ha): 90
Plant response rating, Lambsquarters [6, 17]: 100
Plant response rating, Morningglory [7, 16]: 100
Morningglory plant response rating ([7]; 125 g ai/ha): 50
Morningglory plant response rating ([7]; 500 g ai/ha): 80
Plant response rating, Morningglory [7, 17]: 100
Plant response rating, Pigweed [8, 16]: 100
Pigweed plant response rating ([8]; 125 g ai/ha): 100
Pigweed plant response rating ([8]; 500 g ai/ha): 100
Plant response rating, Pigweed [8, 17]: 100
Plant response rating, Velvetleaf [9, 16]: 100
Velvetleaf plant response rating ([9]; 125 g ai/ha): 80
Velvetleaf plant response rating ([9]; 500 g ai/ha): 100
Plant response rating, Velvetleaf [9, 17]: 100
Blackgrass plant response rating ([10]; 125 g ai/ha): 20
Blackgrass plant response rating ([10]; 500 g ai/ha): 60
Wheat plant response rating [11]: 30
Oat, Wild plant response rating ([12]; 125 g ai/ha): 20
Oat, Wild plant response rating ([12]; 500 g ai/ha): 50
Rice plant response rating [13]: 70
Sedge, Umbrella plant response rating [14]: 90
Barnyardgrass plant response rating [15]: 80

C#CCNC(=O)c1cccc(NC(=O)c2cc(C(C)(C)C)nn2CC)n1 [Compound 147]
Plant response rating, Barnyardgrass [1, 16]: 90
Barnyardgrass plant response rating ([1]; 125 g ai/ha): 20
Barnyardgrass plant response rating ([1]; 500 g ai/ha): 30
Plant response rating, Barnyardgrass [1, 17]: 70
Plant response rating, Surinam Grass [2, 16]: 80
Surinam Grass plant response rating ([2]; 125 g ai/ha): 20
Surinam Grass plant response rating ([2]; 500 g ai/ha): 30
Plant response rating, Surinam Grass [2, 17]: 20
Plant response rating, Cocklebur [3, 16]: 10
Cocklebur plant response rating ([3]; 125 g ai/ha): 0
Cocklebur plant response rating ([3]; 500 g ai/ha): 80
Plant response rating, Cocklebur [3, 17]: 0
Plant response rating, Crabgrass, Large [4, 16]: 100
Crabgrass, Large plant response rating ([4]; 125 g ai/ha): 20
Crabgrass, Large plant response rating ([4]; 500 g ai/ha): 70
Plant response rating, Crabgrass, Large [4, 17]: 90
Plant response rating, Foxtail, Giant [5, 16]: 100
Foxtail, Giant plant response rating ([5]; 125 g ai/ha): 30
Foxtail, Giant plant response rating ([5]; 500 g ai/ha): 40
Plant response rating, Foxtail, Giant [5, 17]: 70
Plant response rating, Lambsquarters [6, 16]: 100
Lambsquarters plant response rating ([6]; 125 g ai/ha): 80
Lambsquarters plant response rating ([6]; 500 g ai/ha): 90
Plant response rating, Lambsquarters [6, 17]: 90
Plant response rating, Morningglory [7, 16]: 30
Morningglory plant response rating ([7]; 125 g ai/ha): 0
Morningglory plant response rating ([7]; 500 g ai/ha): 30
Plant response rating, Morningglory [7, 17]: 0
Plant response rating, Pigweed [8, 16]: 100
Pigweed plant response rating ([8]; 125 g ai/ha): 80
Pigweed plant response rating ([8]; 500 g ai/ha): 90
Plant response rating, Pigweed [8, 17]: 100
Plant response rating, Velvetleaf [9, 16]: 80
Velvetleaf plant response rating ([9]; 125 g ai/ha): 60
Velvetleaf plant response rating ([9]; 500 g ai/ha): 60
Plant response rating, Velvetleaf [9, 17]: 30
Blackgrass plant response rating ([10]; 125 g ai/ha): 10
Blackgrass plant response rating ([10]; 500 g ai/ha): 20
Wheat plant response rating [11]: 20
Oat, Wild plant response rating ([12]; 125 g ai/ha): 0
Oat, Wild plant response rating ([12]; 500 g ai/ha): 30
Rice plant response rating [13]: 50
Sedge, Umbrella plant response rating [14]: 90
Barnyardgrass plant response rating [15]: 60
